Experiments:
Format in all cases: cell-based, human
Pa13 gene = Pa13 gene expression by real-time RT-PCR in HuH7 hepatocytes; conditions: about 20-24 h, vehicle control = 100
Description: (§1) Human hepatocyte HuH7 cells, which are epithelial cells of liver, were obtained from Japan Health Science Research Resources Bank (Osaka, Japan). Human primary adipocytes, which are connective tissue cells specialized for the synthesis and storage of fat, were obtained from Zen-Bio, Inc (Research Triangle Park, NC). Human primary skeletal muscle cells (SKMC) were obtained from Cambrex Bio Science (Walkersville, Md.). PPARα agonists, Wy14643 (Agatha, et al, 2000, Archives of Biochemistry and Biophysics 380:353-359) and fenofibrates were obtained from Cayman Chemical (Ann Arbor, Mich.) and Sigma (St Louis, Mo.), respectively.
(§2) Human HuH7 cells were cultured in Dulbecco's Modified Eagle Medium with 10% Fetal Bovine Serum (Gibco, N.Y.). Cells were treated with charcoal-stripped, delipidated calf serum (5%) (Sigma, St Louis, Mo.) for about 4-18 hours. Then, cells were treated with different concentrations of PPARα agonist (Wy14643 or fenofibrates) for about 20-24 h. Human SKM cells were cultured in Skeletal Muscle Growth Medium (Cambrex Bio Science, Walkersville, Md.), and were treated with different concentrations of PPARα agonist (Wy14643 or fenofibrates) for about 18-20 hours. Human primary adipocytes were cultured in Preadipocyte Medium, (Cat #PM—1, Zen-Bio, Inc., Research Triangle Park, NC), and were treated with different concentrations of PPARα agonist (Wy14643 or fenofibrates) for about 18-20 hours.
(§3) Total RNA was purified from cultured cells following the protocol provided by the manufacturer (Trizon method, Invitrogen Inc. Ca). The polymerase chain reaction (PCR) primers and fluorescent probes (TagMan probes) for Pa9, Pa13, and Pa21 were designed from GenBank sequences of accession numbers W30988, AB000584, and NM_080725, respectively. The primers and probes were designed using the software PrimerDesign (Applied Biosystems, Foster City, Calif.). The PCR primers for Pa9 were SEQ ID NO: 7, (5-[…]) and SEQ ID NO: 8 (5-[…]). […] The PCR primers for Pa13 were SEQ ID NO: 10 (5-[…], T) and SEQ ID NO: 11 (5-[…] T). […] The PCR primers for Pa21 were SEQ ID NO: 13 (5-[…] C) and SEQ ID NO: 14 (5-[…]). […] All primers and probes were synthesized by Keystone Labs (Camarillo, Calif.).
(§4) Reverse transcription (RT) and PCR were conducted in one step using “One-Step RT-PCR Master Mix Reagent” kit (Applied Biosystems, Foster City, Calif.) in ABI PRISM 7700 Sequence Detection System (Applied Biosystems). Each reaction was performed in a total volume of 25 μl containing 40 ng of total RNA. The reaction condition was: 48° C. for 30 minutes, 60° C. for 30 minutes, 94° C. for 5 minutes, followed by 40 cycles of 94° C. for 20 seconds and 60° C. for 1 minute. The primers for 18S ribosomal RNA were developed and provided by Applied Biosystems. The measurement of human 18S ribosomal RNA was used as an internal control for normalization of measuring and loading errors. PCR data were collected by Ct value (the cycle number at which logarithmic PCR plots cross a calculated threshold line) according to the manufacturer's guidelines and the value was used to determine the Δ^Ct (Ct of the target gene minus the Ct of 18S ribosomal RNA controls). Relative mRNA level was calculated using the equation 2^−ΔΔCt as described previously (Heid et al., 1996, Genome Res. 6:986-994).

Pa9 gene = Pa9 gene expression by real-time RT-PCR in primary skeletal muscle cells; conditions: for Pa9 (W38098) gene expression, Percentage ± SE (%): about 18-20 hours, vehicle control = 100; for Pa9 gene expression, Fold of Induction: Veh = 1.00
Description: as §1, §2, §3, §4
The nucleotide sequence of the human FDRG gene (AX278133) is provided in SEQ ID NO: 1 and the sequence alignment between W30988 and FDRG gene is shown in FIG. 1. […] Quantitative real-time RT-PCR was performed to test whether gene expression of the human FDRG gene is regulated by PPARα.

Pa21 gene = Pa21 gene expression by real-time RT-PCR in primary adipocytes; conditions: about 18-20 hours, vehicle control = 100
Description: as §1, §2, §3, §4

SMILES: Cc1cccc(Nc2cc(Cl)nc(SCC(=O)O)n2)c1C [Wy14643]
- Pa13 (N26311) gene expression, Percentage ± SE (%) (Pa13 gene; 3 uM): 70 ± 28%
- Pa13 (N26311) gene expression, Percentage ± SE (%) (Pa13 gene; 10 uM): 100 ± 4%
- Pa13 (N26311) gene expression, Percentage ± SE (%) (Pa13 gene; 30 uM): 140 ± 26.4%
- Pa13 (N26311) gene expression, Percentage ± SE (%) (Pa13 gene; 100 uM): 130 ± 17.7%
- Pa13 (N26311) gene expression, Percentage ± SE (%) (Pa13 gene; 300 uM): 720 ± 36.4%
- Pa9 (W38098) gene expression, Percentage ± SE (%) (Pa9 gene; 3 uM): 110 ± 24.5%
- Pa9 (W38098) gene expression, Percentage ± SE (%) (Pa9 gene; 10 uM): 230 ± 35.7%
- Pa9 gene expression, Fold of Induction (Pa9 gene; 30 uM): 3.64 fold
- Pa9 (W38098) gene expression, Percentage ± SE (%) (Pa9 gene; 30 uM): 870 ± 30%
- Pa9 gene expression, Fold of Induction (Pa9 gene; 100 uM): 6.45 fold
- Pa9 (W38098) gene expression, Percentage ± SE (%) (Pa9 gene; 100 uM): 860 ± 0.9%
- Pa9 (W38098) gene expression, Percentage ± SE (%) (Pa9 gene; 300 uM): 610 ± 10.2%
- Pa21 (H4960) gene expression, Percentage ± SE (%) (Pa21 gene; 10 uM): 92 ± 10%
- Pa21 (H4960) gene expression, Percentage ± SE (%) (Pa21 gene; 50 uM): 108 ± 2%
- Pa21 (H4960) gene expression, Percentage ± SE (%) (Pa21 gene; 250 uM): 314 ± 2.5%

Reference: patent US20050191668A1, “Methods of using peroxisome proliferator-activated receptor alpha target genes” (priority 2004, published 2005)
